Measured values published in ChEMBL document CHEMBL1121647, “Synthesis and antiviral properties of (Z)-5-(2-bromovinyl)-2'-deoxyuridine” (1981).
In brackets after ≈: the same amount, converted by molar mass.

Columns and labels:
Type in all cases: functional
Human alphaherpesvirus 2 [1] = test: Minimum inhibitory concentration required to reduce HSV-2 (Lyons) strain-induced cytopathogenicity in primary rabbit kidney cell cultures
Human alphaherpesvirus 1 [2] = test: Minimum inhibitory concentration required to reduce HSV-1 (F) strain-induced cytopathogenicity in primary rabbit kidney cell cultures
Human alphaherpesvirus 1 [3] = test: Minimum inhibitory concentration required to reduce HSV-1 (KOS) strain-induced cytopathogenicity in primary rabbit kidney cell cultures
Human alphaherpesvirus 1 [4] = test: Minimum inhibitory concentration required to reduce HSV-1 (McIntyre) strain-induced cytopathogenicity in primary rabbit kidney cell cultures
Human alphaherpesvirus 2 [5] = test: Minimum inhibitory concentration required to reduce HSV-2 (196) strain-induced cytopathogenicity in primary rabbit kidney cell cultures
Human alphaherpesvirus 2 [6] = test: Minimum inhibitory concentration required to reduce HSV-2 (G) strain-induced cytopathogenicity in primary rabbit kidney cell cultures
[7] = tested on: Vesicular stomatitis virus; test: Minimum inhibitory concentration required to reduce vesicular stomatis virus-induced cytopathogenicity in primary rabbit kidney cell cultures
Human alphaherpesvirus 2 [8] = test: Antiviral activity expressed as minimum HSV-2 (Lyons) strain-induced cytopathogenicity in primary rabbit kidney cell cultures

O=c1[nH]c(=O)n([C@H]2C[C@H](O)[C@@H](CO)O2)cc1/C=C\Br
MIC (Human alphaherpesvirus 2 [1]): 4 µg/mL (≈ 12 µM)
MIC (Human alphaherpesvirus 1 [2]): 2 µg/mL (≈ 6 µM)
MIC (Human alphaherpesvirus 1 [3]): 4 µg/mL (≈ 12 µM)
MIC (Human alphaherpesvirus 1 [4]): 1 µg/mL (≈ 3 µM)
MIC (Human alphaherpesvirus 2 [5]): 4 µg/mL (≈ 12 µM)
MIC (Human alphaherpesvirus 2 [6]): 2 µg/mL (≈ 6 µM)
MIC [7]: > 200 µg/mL

O=c1[nH]c(=O)n([C@H]2C[C@H](O)[C@@H](CO)O2)cc1/C=C/Br [BRIVUDINE]
MIC (Human alphaherpesvirus 1 [2]): 0.02 µg/mL (≈ 0.06 µM)
MIC (Human alphaherpesvirus 1 [3]): 0.02 µg/mL (≈ 0.06 µM)
MIC (Human alphaherpesvirus 1 [4]): 0.01 µg/mL (≈ 0.03 µM)
MIC (Human alphaherpesvirus 2 [8]): 0.4 µg/mL (≈ 1.2 µM)
MIC (Human alphaherpesvirus 2 [5]): 0.4 µg/mL (≈ 1.2 µM)
MIC (Human alphaherpesvirus 2 [6]): 0.7 µg/mL (≈ 2.1 µM)
MIC [7]: > 200 µg/mL

O=c1[nH]c(=O)n([C@H]2C[C@H](O)[C@@H](CO)O2)cc1I [IDOXURIDINE]
MIC (Human alphaherpesvirus 1 [2]): 0.2 µg/mL (≈ 0.565 µM)
MIC (Human alphaherpesvirus 1 [3]): 0.2 µg/mL (≈ 0.565 µM)
MIC (Human alphaherpesvirus 1 [4]): 0.2 µg/mL (≈ 0.565 µM)
MIC (Human alphaherpesvirus 2 [8]): 0.2 µg/mL (≈ 0.565 µM)
MIC (Human alphaherpesvirus 2 [5]): 0.4 µg/mL (≈ 1.13 µM)
MIC (Human alphaherpesvirus 2 [6]): 0.4 µg/mL (≈ 1.13 µM)
MIC [7]: > 200 µg/mL
